PMC11819763, “Activity of Potassium Channel BmK-NSPK Inhibitor Regulated by Basic Amino Acid Residues: Novel Insight into the Diverse Peptide Pharmacology” (Molecules, 2025)
Positions of bridges follow the written chain, without caps; N, C: chain ends. Residues, ends and D or L forms follow the SMILES beside them.

What was measured:
[1] = test system: hKv1.3-M2 channel (filter region of hKv1.3 substituted by hKv1.2 region); assay: Whole-cell patch clamp, chimeric hKv1.3-M2 channel currents; assay type: cell-based, human; details: mean ± SE, n ≥ 3, SEM
Method: Apart from the chimeric hKv1.3-M1, this work further constructed the chimeric hKv1.3-M2 channel, in which the filter region of hKv1.3 channel was substituted by the equivalent region of hKv1.2 channel (Figure 6A). Pharmacological experiments 100 nM and 1 μM MeuKTX were able to inhibit 78.3 ± 4.9% and 95.9 ± 1.3% of hKv1.3-M2 channel currents, respectively, which indicated the minor effect of channel filter region on MeuKTX binding (Figure 6B). However, more significant effects were also observed for BmK-NSPK analogs with different numbers of basic residues.
(§1) The pRc/CMV-hKv1.3 was kindly provided by Professor Stephan Grissmer (University of Ulm, Ulm, Germany) and Professor Olaf Pongs (Zentrum für Molekulare Neurobiologie der Universität Hamburg, Hamburg, Germany). The cDNAs encoding hKv1.1 and hKv1.2 (from Professor Stephan Grissmer, University of Ulm, Ulm, Germany) were subcloned into the vector pIRES2-EGFP (TaKaRa Clontech, Mountain View, CA, USA). The cDNAs encoding hKv1.6 were subcloned into the vector pcDNA 3.1(+) (TaKaRa Clontech, Mountain View, CA, USA). A QuikChange Site-Directed Mutagenesis Kit (Stratagene, La Jolla, CA, USA) was used to produce the mutants based on the wild-type hKv1.3 channel plasmids. All plasmids and their mutants were verified by DNA sequencing before the expression. The three channel chimeras were, respectively, named by hKv1.3-M1 (425DPTSGFS432 → 425ERESQFP432), hKv1.3-M2 (452HPV456 → 452VPT456) and hKv1.3-M3 (425DPTSGFS432 → 425ERESQFP432, 452HPV456 → 452VPT456).
(§2) In a 5% CO2 incubator at 37 °C, HEK293T cells were cultured in DMEM medium (Gibco, Grand Island, NY, USA) supplemented with 10% fetal bovine serum and 1% penicillin/streptomycin. Potassium channel plasmids and pEGFP-N1 were co-transfected into the HEK293 cells using the ExFect Transfection Reagent (Vazyme, Nanjin, China). After one day of transfection, the potassium currents were recorded, and the positive cells were selected based on the presence of GFP fluorescence.
(§3) Whole-cell current measurement and data acquisition were performed using an EPC-10 patch-clamp amplifier controlled by Pulse (HEKA Elektronik, Lambrecht, Germany). The potassium currents were recorded according to the recording protocol for the Kv1 channel, as described in previously published references. Peptides were dissolved in an external solution containing 0.01% BSA for electrophysiological experiments. The patch pipette solution contained 140 mM KF (Sigma, St. Louis, MC, USA), 2 mM MgCl2 (Sinopharm Chemical Reagent Co., Ltd., Shanghai, China), 1 mM EGTA (Sigma) and 10 mM HEPES (neoFroxx, Einhausen, Hessen, Germany) (pH adjusted to 7.4 with KOH (Sinopharm Chemical Reagent Co., Ltd., Shanghai, China)), and the bath solution contained 4.5 mM KCl, 160 Mm NaCl (Sinopharm Chemical Reagent Co., Ltd., Shanghai, China), 5 mM HEPES, 2 mM CaCl2 (Sinopharm Chemical Reagent Co., Ltd., Shanghai, China) and 1 mM MgCl2 (pH adjusted to 7.4 with NaOH (Sinopharm Chemical Reagent Co., Ltd., Shanghai, China)).
(§4) Graphing and data analysis were conducted using GraphPad Prism software (Version 8.0, San Diego, CA, USA), ClampFit software (version 10.2, Molecular Devices, Sunnyvale, CA, USA), and SigmaPlot software (version 12.0, IBM SPSS, Chicago, IL, USA). The dose–response relationship between the channel current and peptide inhibition was modeled by the modified Hill equation: Ipeptide/Icontrol = 1/{1 + [peptide]/IC50}, where Ipeptide represents the potassium current under peptide inhibition, Icontrol represents the peak current, IC50 is the half-maximal inhibition concentration and [peptide] represents the peptide concentration. The IC50 was obtained by fitting the Hill equation. Results are presented as mean ± SE, with each sample tested on at least three cells (n ≥ 3).

[2] = test system: hKv1.3-M1 channel (turret domain of hKv1.3 substituted by hKv1.2 region); assay: Whole-cell patch clamp, chimeric hKv1.3-M1 channel currents; assay type: cell-based, human; details: mean ± SE, n ≥ 3, SEM
Method: In order to further investigate the effect of basic residue number on BmK-NSPK pharmacology, the activities of BmK-NSPK analogs were also tested on the Kv1.3 channel chimeras in this work. […] Based on the weak inhibition potencies of BmK-NSPK-7K and BmK-NSPK-8K towards hKv1.2 channel (Figure 5C,D), the work first constructed the chimeric hKv1.3-M1, in which the turret domain of hKv1.3 channel was substituted by the equivalent region of hKv1.2 channel (Figure 6A). Pharmacological experiments with 100 nM and 1 μM MeuKTX were able to inhibit 45.7 ± 7.9% and 82.8 ± 6.1% of hKv1.3-M1 channel currents, respectively (Figure 6B).
as §1, §2, §3, §4

[3] = test system: hKv1.3-M3 channel (turret, pore helix and filter region of hKv1.3 replaced by hKv1.2 regions); assay: Whole-cell patch clamp, chimeric hKv1.3-M3 channel currents; assay type: cell-based, human; details: mean ± SE, n ≥ 3, SEM
From the text: as §1, §2, §3, §4

[4] = test system: hKv1.6 channel; assay: Whole-cell patch clamp, hKv1.6 channel currents; assay type: cell-based, human; details: 1 μM peptide, mean ± SE, n ≥ 3, SEM
From the text: as §1, §2
(§5) Whole-cell current measurement and data acquisition were performed using an EPC-10 patch-clamp amplifier controlled by Pulse (HEKA Elektronik, Lambrecht, Germany). The potassium currents were recorded according to the recording protocol for the Kv1 channel, as described in previously published references. Peptides were dissolved in an external solution containing 0.01% BSA for electrophysiological experiments. […]

[5] = test system: hKv1.2 channel; assay: Whole-cell patch clamp, hKv1.2 channel currents; assay type: cell-based, human; details: 1 μM peptide, mean ± SE, n ≥ 3, SEM
From the text: as §1, §2, §5

[6] = target: T1, hKv1.3 channel (Homo sapiens, UniProt P22001); assay: Whole-cell patch clamp, hKv1.3 channel currents in HEK293T cells; assay type: cell-based; details: from IC50 values on hKv1.3 channel
T1 construct: expressed in transfected cells; host or cells: HEK293T cells, co-transfected with pEGFP-N1
T1 sequence (P22001 whole entry): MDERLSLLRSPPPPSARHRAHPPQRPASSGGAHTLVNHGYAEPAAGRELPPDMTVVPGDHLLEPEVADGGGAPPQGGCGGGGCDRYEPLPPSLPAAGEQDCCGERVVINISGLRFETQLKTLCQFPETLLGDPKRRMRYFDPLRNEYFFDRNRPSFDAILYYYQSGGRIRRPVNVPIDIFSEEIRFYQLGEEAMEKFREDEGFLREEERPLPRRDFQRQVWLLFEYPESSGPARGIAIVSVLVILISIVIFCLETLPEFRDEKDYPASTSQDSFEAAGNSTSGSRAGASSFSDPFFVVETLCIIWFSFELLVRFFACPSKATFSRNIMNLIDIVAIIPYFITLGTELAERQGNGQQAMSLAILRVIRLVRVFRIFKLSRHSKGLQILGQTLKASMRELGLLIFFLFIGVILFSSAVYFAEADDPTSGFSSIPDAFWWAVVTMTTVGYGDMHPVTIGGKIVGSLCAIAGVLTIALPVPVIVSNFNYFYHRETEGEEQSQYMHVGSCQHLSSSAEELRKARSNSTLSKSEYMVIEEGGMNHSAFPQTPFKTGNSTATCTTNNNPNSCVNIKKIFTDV
From the text: In order to verify the differential pharmacological activities between BmK-NSPK, MeuKTX, KTX-2 and KTX-3, their recombinant peptides were produced according to our previous procedure. […] Then, MALDI-TOF-MS was further used to analyze BmK-NSPK. The determined molecular mass was […], which well corresponds to its calculated value of 3659.8 Da. The circular dichroism (CD) spectra also indicated the overall similarity to the secondary structures between BmK-NSPK, MeuKTX, KTX-2 and KTX-3 peptides. […] Subsequently, the patch clamp technique was used to characterize the pharmacological activities of BmK-NSPK, MeuKTX, KTX-2 and KTX-3 peptides according to our previously described procedure. […]
as §2, with “Potassium channel plasmids and pEGFP-N1 were co-transfected into the HEK293 cells using the ExFect Transfection Reagent (Vazyme, Nanjin, China).” left out
as §5, with “references.” for “references. Peptides were dissolved in an external solution containing 0.01% BSA for electrophysiological experiments.”

[7] = test system: hKv1.1 channel; assay: Whole-cell patch clamp, hKv1.1 channel currents; assay type: cell-based, human; details: 1 μM peptide, mean ± SE, n ≥ 3, SEM
From the text: as §1, §2, §5

## CSCC[C@@H]1NC(=O)CNC(=O)[C@H](C)NC(=O)[C@H](CC(=O)O)NC(=O)[C@H](CCCCN)NC(=O)[C@@H]2CSSC[C@@H](C(=O)N[C@H](C(=O)N3CCC[C@H]3C(=O)N[C@@H](CCCCN)C(=O)NCC(=O)O)[C@@H](C)O)NC(=O)[C@H](CC(=O)O)NC(=O)[C@@H]3CSSC[C@H](NC(=O)[C@H](CCC(N)=O)NC(=O)CNC(=O)[C@H](CO)NC(=O)[C@H](Cc4c[nH]cn4)NC(=O)[C@H](CCCCN)NC(=O)[C@@H](NC(=O)[C@H](CCCCN)NC(=O)[C@@H](NC(=O)[C@H](CC(N)=O)NC(=O)[C@H](CCCCN)NC(=O)CNC(=O)[C@@H](N)C(C)C)C(C)C)CSSC[C@H](NC(=O)[C@H](CCCCN)NC(=O)CNC(=O)[C@H](Cc4ccccc4)NC(=O)[C@H](CCCNC(=N)N)NC1=O)C(=O)N[C@@H](CCSC)C(=O)N[C@@H](CC(N)=O)C(=O)NCC(=O)N[C@@H](CCCCN)C(=O)N3)C(=O)N[C@@H](CC(C)C)C(=O)N[C@@H](CCCCN)C(=O)N1CCC[C@H]1C(=O)N2 [BmK-NSPK-8K] (H-VGKNVKCKHSGQCLKPCKDAGMRFGKCMNGKCDCTPKG-OH; disulfide 7-27, 13-32, 17-34 (inferred); N-terminus and C-terminus assumed)
[1]; 100 nM peptide
  inhibition of hKv1.3-M2 channel currents: 8.8 ± 2.6%
[1]; 1 μM peptide
  inhibition of hKv1.3-M2 channel currents: 51.3 ± 1.5%
[2]; 100 nM peptide
  inhibition of hKv1.3-M1 channel currents: 4.5 ± 1.2%
[2]; 1 μM peptide
  inhibition of hKv1.3-M1 channel currents: 27.7 ± 4.0%
[3]; 100 nM peptide
  inhibition of hKv1.3-M3 channel currents: 2.7 ± 0.92%
[3]; 1 μM peptide
  inhibition of hKv1.3-M3 channel currents: 5.1± 1.4%
[4]
  inhibition of hKv1.6 channel currents: 34.1 ± 4.8%
[5]
  inhibition of hKv1.2 channel currents: 12.3 ± 1.8%
[6]
  fold decreased activity on hKv1.3 compared with BmK-NSPK-7K: ~ 10 fold
[7]
  inhibition of hKv1.1 channel currents: 84.3 ± 1.8%
